# In ChEMBL document CHEMBL1240331, “Chemical genetic interrogation of natural variation uncovers a molecule that is glycoactivated” (Nat Chem Biol, 2007):
# Activity calls are given as the source filed them. No cut-off for these calls is given here.
# Key:
# Assay type in all cases: functional, organism-based
# Arabidopsis thaliana [1] = test: Growth inhibition of Arabidopsis thaliana ecotype RRS7 assessed as decrease in root length
# Arabidopsis thaliana [2] = test: Growth inhibition of Arabidopsis thaliana ecotype Columbia assessed as decrease in root length
# Arabidopsis thaliana [3] = test: Growth inhibition of Arabidopsis thaliana ecotype KZ1 assessed as inhibition of germination
# Arabidopsis thaliana [4] = test: Growth inhibition of Arabidopsis thaliana ecotype Ra-0 assessed as inhibition of germination
# Arabidopsis thaliana [5] = test: Growth inhibition of Arabidopsis thaliana ecotype Columbia assessed as inhibition of germination at 100 uM
# Arabidopsis thaliana [6] = test: Growth inhibition of Arabidopsis thaliana ecotype Kyoto assessed as inhibition of germination
# Arabidopsis thaliana [7] = test: Growth inhibition of Arabidopsis thaliana ecotype Ull2-3 assessed as inhibition of germination
# Arabidopsis thaliana [8] = test: Growth inhibition of Arabidopsis thaliana ecotype Br-0 assessed as inhibition of germination
# Arabidopsis thaliana [9] = test: Growth inhibition of Arabidopsis thaliana ecotype CSH-1 assessed as inhibition of germination
# Arabidopsis thaliana [10] = test: Growth inhibition of Arabidopsis thaliana ecotype Columbia assessed as inhibition of germination
# Arabidopsis thaliana [11] = test: Growth inhibition of Arabidopsis thaliana ecotype Pog-0 assessed as inhibition of germination
# Arabidopsis thaliana [12] = test: Growth inhibition of Arabidopsis thaliana ecotype LIN assessed as inhibition of germination
# Arabidopsis thaliana [13] = test: Growth inhibition of Arabidopsis thaliana ecotype Co assessed as inhibition of germination
# Arabidopsis thaliana [14] = test: Growth inhibition of Arabidopsis thaliana ecotype Rld-2 assessed as decrease in hypocotyl length
compound,measurement,setting,value
Cc1ccc(C(C)C)c(OCC(=O)N/N=C/c2cccnc2)c1 [CHUBOXYPYR],IC50,Arabidopsis thaliana [1],22 µM
same,IC50,Arabidopsis thaliana [2],80 µM
O=S(=O)(NCc1ccccn1)c1ccc(Br)c2ccccc12 [PYRABACTIN A],IC50,Arabidopsis thaliana [3],2.2 µM
CC1CCC(C(C)C)C(=O)/C1=C\c1ccc(N)cc1 (stereo not drawn),IC50,Arabidopsis thaliana [4],7 µM
same,growth inhibition (GI),Arabidopsis thaliana [5],inactive
CCN(CC)c1ccc(C(=O)c2ccccc2C(=O)O)c(O)c1,IC50,Arabidopsis thaliana [6],12.5 µM
same,growth inhibition (GI),Arabidopsis thaliana [5],inactive
OC(c1ccccc1)(c1ccccc1)c1c[nH]cn1,IC50,Arabidopsis thaliana [7],17 µM
same,growth inhibition (GI),Arabidopsis thaliana [5],inactive
O=[N+]([O-])c1ccc(CN2CCCCC2c2cccnc2)cc1 (stereo not drawn),IC50,Arabidopsis thaliana [8],3 µM
same,growth inhibition (GI),Arabidopsis thaliana [5],inactive
CCOc1ccc(S(=O)(=O)NCc2ccccn2)c2ccccc12 [PYRABACTIN B],IC50,Arabidopsis thaliana [9],2.5 µM
same,IC50,Arabidopsis thaliana [10],8.4 µM
COc1ccc2occ(C(=O)c3ccccc3Cl)c(=O)c2c1,IC50,Arabidopsis thaliana [11],3 µM
O=C(c1ccccc1Cl)c1coc2ccccc2c1=O,IC50,Arabidopsis thaliana [12],≤ 14 µM
CCc1ccc(CN2CCCCC2c2cccnc2)cc1 (stereo not drawn),IC50,Arabidopsis thaliana [13],10 µM
same,growth inhibition (GI),Arabidopsis thaliana [5],inactive
CCOC(=O)N1CCN(c2cc(C)c3ccc(Cl)cc3n2)CC1 [POLARAZINE],IC50,Arabidopsis thaliana [14],13 µM
